These results are taken from patent publication US20090163577A1, “METHODS AND COMPOSITIONS FOR ANTAGONIZING ANTI-APOPTOTIC Bcl-2-FAMILY PROTEINS” (Burnham Institute for Medical Research, priority 2007, published 2009).

Series [1] concerns Bcl-2 over-expressing HL-60 cells. Nature of the series: Cytotoxicity in NEO-control vs Bcl-2 over-expressing HL-60 cells. Conditions: HL-60 Bcl-2 vs NEO-control, 8 hrs. The format is cell-based. From the text:
Data are representative of at least 3 independent experiments.
Cell Culture, Transfection, and Apoptosis Assays.
We tested the cytotoxic activity of GA against HL-60 cells that had been stably transfected with NEO-control or Bcl-2-expression plasmids (Konopleva et al., Blood 95:3929-3938, 2000).

In series [2] the target is T1, Bfl-1 (Homo sapiens, UniProt Q16548).
T1 sequence (Q16548 1-155 limits assumed): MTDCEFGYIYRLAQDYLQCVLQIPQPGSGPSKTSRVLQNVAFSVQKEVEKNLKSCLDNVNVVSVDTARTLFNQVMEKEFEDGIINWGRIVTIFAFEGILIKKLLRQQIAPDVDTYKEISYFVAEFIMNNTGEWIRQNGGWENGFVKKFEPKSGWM
Nature of the series: FPA competitive FITC-Bid BH3 peptide displacement, Bfl-1 (also HTS). Conditions: FPA, FITC-Bid BH3 peptide, compared with GA.

Series [3] has as its system Jurkat cells. Nature of the series: Cytotoxicity of GA analogs, live cells by Annexin V/PI, Jurkat. Conditions: 20 hrs, 0-50 μM.
The test system of series [4] is Jurkat cells.

Take `CN[C@@H]1C[C@H]2O[C@@](C)([C@@H]1OC)n1c3ccccc3c3c4c(c5c6ccccc6n2c5c31)C(=O)NC4` [staurosporine, reference compound]: in series [1], the “effect of Bcl-2 over-expression on cytotoxicity” value is “block to apoptosis”.

Regarding `CC(C)=CCCC1(C)C=Cc2c(O)c3c(c(CC=C(C)C)c2O1)OC12C(=CCCC1C(C)(C)O[C@@]2(C/C=C(\C)C(=O)O)C(=O)O)C3=O` (some centres unmarked) [Garcinolic acid], in series [2], the “activity in BH3 displacement assays” value is on record as “greatly reduced activity”. For the same molecule, the “cytotoxic activity against cultured leukemia cells” value in series [3] is listed as “non-toxic”.

As for `CC(C)=CCC[C@]1(C)C=Cc2c(O)c3c(c(CC=C(C)C)c2O1)O[C@]12C(C[C@@H]4CC1C(C)(C)O[C@@]2(C/C=C(/C)C(=O)O)C4O)C3=O` (some centres unmarked) [tetrahydro-GA], the “activity in BH3 displacement assays” value in series [2] is recorded as “greatly reduced activity”. The “cytotoxic potency relative to GA (fold less potent)” value in series [4] is listed as about 50 fold.
